Values belong to the molecule of their own block, whether it stands above or below them. The source made the active and inactive calls. The rule behind the calls is not given here.
Columns and labels:
[1] = biological target: T1, Aurora kinase A (Homo sapiens) (UniProt O14965); assay: Inhibition of human recombinant aurora-2 kinase expressed in Sf9 cells at 20 uM using kemptide as substrate by kinase-Glo luciferase assay
T1 sequence (whole entry): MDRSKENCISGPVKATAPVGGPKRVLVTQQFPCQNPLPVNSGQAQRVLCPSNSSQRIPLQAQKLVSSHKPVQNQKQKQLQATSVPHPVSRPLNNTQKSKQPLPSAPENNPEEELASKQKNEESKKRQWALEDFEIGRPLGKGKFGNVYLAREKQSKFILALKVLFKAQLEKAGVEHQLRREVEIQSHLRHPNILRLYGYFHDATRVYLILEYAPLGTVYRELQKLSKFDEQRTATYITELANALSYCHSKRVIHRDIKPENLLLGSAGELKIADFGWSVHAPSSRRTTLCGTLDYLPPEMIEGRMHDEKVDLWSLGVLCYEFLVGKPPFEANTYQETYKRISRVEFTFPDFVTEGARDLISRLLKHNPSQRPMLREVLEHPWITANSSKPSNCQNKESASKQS

MIA PaCa-2 [2] = assay: Inhibition of cell proliferation of human MIAPaCa2 cells at 3 to 300 uM after 48 hrs by hematocytometry; type: functional, cell-based
MIA PaCa-2 [3] = assay: Inhibition of cell proliferation of human MIAPaCa2 cells at 0.01 to 1000 uM after 4 days by MTS assay; type: functional, cell-based
PANC-1 = assay: Inhibition of cell proliferation of human PANC1 cells at 0.01 to 1000 uM after 4 days by MTS assay; type: functional, cell-based
Caco-2 = assay: Inhibition of cell proliferation of human Caco2 cells at 0.1 to 1000 uM after 4 days by MTS assay; type: functional, cell-based
COLO 320 = assay: Inhibition of cell proliferation of human COLO320 cells at 0.1 to 1000 uM after 4 days by MTS assay; type: functional
MCF7 = assay: Inhibition of cell proliferation of human MCF7 cells at 0.1 to 1000 uM after 4 days by MTS assay; type: functional, cell-based
T47D = assay: Inhibition of cell proliferation of human T47D cells at 0.1 to 1000 uM after 4 days by MTS assay; type: functional, cell-based
MDA-MB-435 = assay: Inhibition of cell proliferation of human MDA-MB-435 cells at 0.1 to 1000 uM after 4 days by MTS assay; type: functional, cell-based
A2780 = assay: Inhibition of cell proliferation of human A2780 cells at 0.1 to 1000 uM after 4 days by MTS assay; type: functional, cell-based
ASPC1 = assay: Inhibition of cell proliferation of human AsPC1 cells at 0.1 to 1000 uM after 4 days by MTS assay; type: functional, cell-based

SMILES: COc1cc2[nH]c3ncnc(N4CCN(C(=S)Nc5ccc(S(=O)(=O)Nc6ncccn6)cc5)CC4)c3c2cc1OC
- inhibition (MIA PaCa-2 [2]): Active
- inhibition (MIA PaCa-2 [3]): Active
- inhibition (PANC-1): Active
- inhibition (Caco-2): Active
- inhibition (COLO 320): Active
- inhibition (MCF7): Active
- inhibition (T47D): Active
- inhibition (MDA-MB-435): Active
- inhibition (A2780): Active
- inhibition (ASPC1): Active

SMILES: COc1cc2ncnc(Nc3cccc(Br)c3)c2cc1OC
- inhibition [1]: Active

Second part, the molecule after the results:

- inhibition [1]: Active
SMILES: O=S(=O)(Nc1ncccn1)c1ccc(Nc2ncnc3c2sc2ncccc23)cc1

- inhibition [1]: Active
SMILES: COc1cc2ncnc(N3CCN(C(=S)Nc4ccc(S(=O)(=O)Nc5ncccn5)cc4)CC3)c2cc1OC

- inhibition [1]: Active
SMILES: O=S(=O)(Nc1ncccn1)c1ccc(Nc2ncnc3c2oc2ccccc23)cc1
